From patent US20250019370A1, “L-LYSINE SALT OF 4-CHLORO-5-[4-(2,6-DICHLOROPHENYL)SULFONYLPIPERAZIN-1-YL]-1-BENZOFURAN-2-CARBOXYLIC ACID AND VARIOUS FORMS THEREOF” (ENYO PHARMA, priority 2023, published 2025)

Tests used:
[1] = Dynamic Vapor Sorption (DVS) analysis (gas water sorption); assay type: physicochemical; settings: for water uptake (DVS): 25° C./60% RH; for hygroscopicity (DVS): hygroscopic above 2% mass gain at 25° C./60% RH
Description: The dynamic vapor sorption (DVS) analysis (gas water sorption) was performed on a DVS-Intrinsic incubator (SMS Ltd), equipped with DVS-Intrinsic Control Software 1.0. The sample, placed in an aluminium basket holder, was submitted to a full-cycle analysis (sorption followed by desorption cycle) under the following conditions:
The sample was first pre-dried under a stream of dry air until a stabilized sample mass was observed. Then, the relative humidity was increased by 5% increments. At each step, the sample mass was allowed to increase until equilibrium is reached (according to a given dm/dt target), and then a new relative humidity rise occurred. Relative humidity was ramped up to 95%. After equilibration at this point, desorption began in a similar stepwise manner, with sample mass decrease again allowed to stabilize after each incremental humidity decrease.
With both segments of the above-described method, the sample mass recording allowed describing of the whole vapor water sorption/desorption behaviour versus relative humidity.

[2] = Thermogravimetric analysis (TGA), mass losses upon heating; assay type: physicochemical; settings: listed as EYP001 L-lysine salt (sample A)
Description: Thermogravimetric analysis was performed on a TA Instruments TGA Hi-Res 2950 apparatus equipped with an evolved gas analysis furnace. A sample was placed in an opened aluminium basket and analysed according to the following conditions: […]

[3] = Solubility kinetics in pH 4.5 acetate buffer; assay type: physicochemical; settings: for Soluble fraction: 37 ° C., listed as EYP001 L-Lysine salt (Form I)
Description: The solubility kinetics of the salt forms as well as the native EYP001 free acid form were determined in FaSSIF and FeSSIF media, and in a pH 4.5 acetate buffer as detailed below:
The samples were prepared by adding an excess of each tested bulk (salt or native EYP001) to a given volume of test medium. The suspension was stirred by orbital stirring over 1 hour (in both pH 4.5 acetate buffer and FeSSIF medium) or 24 hours (inFaSSIF medium) at 37° C., protected from light.
In pH 4.5 acetate buffer, the soluble concentration was assessed after 0.5 hour and 1 hour of stirring.
At each time point, the “supernatant” was isolated and diluted in a solvent mixture allowing its injection into the chromatographic system. The concentration in solution in the test medium was determined by HPLC with external standardization.

[4] = Solubility kinetics in FaSSIF medium; assay type: physicochemical
Description: The solubility kinetics of the salt forms as well as the native EYP001 free acid form were determined in FaSSIF and FeSSIF media, and in a pH 4.5 acetate buffer as detailed below: The samples were prepared by adding an excess of each tested bulk (salt or native EYP001) to a given volume of test medium. The suspension was stirred by orbital stirring over 1 hour (in both pH 4.5 acetate buffer and FeSSIF medium) or 24 hours ([…] medium) at 37° C., protected from light. In FaSSIF medium, the soluble concentration was assessed after 24 hours of stirring. […] At each time point, the “supernatant” was isolated and diluted in a solvent mixture allowing its injection into the chromatographic system. The concentration in solution in the test medium was determined by HPLC with external standardization.

[5] = Solubility kinetics in FeSSIF medium; assay type: physicochemical; settings: for Soluble fraction: 37 ° C.; for Soluble fraction / pH: listed as EYP001 L-Lysine salt (Form I); for pH: pH printed with the soluble fraction
Description: The solubility kinetics of the salt forms as well as the native EYP001 free acid form were determined in FaSSIF and FeSSIF media, and in a pH 4.5 acetate buffer as detailed below: The samples were prepared by adding an excess of each tested bulk (salt or native EYP001) to a given volume of test medium. […] In FaSSIF medium, the soluble concentration was assessed after 24 hours of stirring. […] At each time point, the “supernatant” was isolated and diluted in a solvent mixture allowing its injection into the chromatographic system. The concentration in solution in the test medium was determined by HPLC with external standardization.

[6] = Pharmacokinetic study Experiment #2, oral administration in rats; assay type: in vivo, rat; settings: 50 mg EqEYP001/Kg
Description: (§1) In a second study (Experiment #2), EYP001 and EYP001 L-lysine salt Form I in aqueous formulations (0.5% CMC, 0.25% Tween 80, water) were orally administrated at a dose of 50 mg EqEYP001/Kg in 8 male rats for each compound. Blood samples were taken at 0.25 h, 0.5 h, 1 h, 2 h, 4 h, 6 h, 8 h, 12 h, and 24 h after oral administration.

[7] = Pharmacokinetic study Experiment #3, oral administration in rats; assay type: in vivo, rat; settings: 10 mg EqEYP001/Kg
Description: as §1, with “a third” for “a second”, “(Experiment #3),” for “(Experiment #2),”, “of 10” for “of 50”, “in 6-8” for “in 8”

[8] = listed as EYP001 L-lysine salt (Sample A)
[9] = listed as EYP001 L-lysine salt (form I)
[10] = male rats, versus EYP001 free acid

NCCCC[C@H](N)C(=O)O.O=C(O)c1cc2c(Cl)c(N3CCN(S(=O)(=O)c4c(Cl)cccc4Cl)CC3)ccc2o1 [EYP001 L-lysine salt Form I, L-lysine salt of 4-chloro-5-[4-(2,6-dichlorophenyl)sulfonylpiperazin-1-yl]-1-benzofuran-2-carboxylic acid]
mass loss during preliminary drying phase ([1]; 25° C./0% RH before sorption, listed as EYP001 L-lysine salt (Sample A)): no significant mass loss
water uptake (DVS) [1, 8]: 0.4%
water uptake (DVS) [1, 9]: 0.4%
water uptake upon sorption (DVS) ([1]; 25° C./95% RH, listed as EYP001 L-lysine salt (Sample A)): 0.8%
final sample mass after full sorption-desorption cycle versus initial mass ([1]; back to 0% RH): roughly the same as the initial one
hygroscopicity (DVS) [1, 8]: non-hygroscopic
hygroscopicity (DVS) [1, 9]: non-hygroscopic
onset temperature of thermal decomposition (TGA) ([2]; heater ramp 10 ° C./min, nitrogen): 254 °C
mass loss before the beginning of thermal decomposition (TGA) ([2]; upon heating): no mass loss
solubility compared to EYP001 free acid, Benethamine, Zinc, Benzathine and Ethylene diamine salts ([3]; 37° C.): much higher solubility
Soluble fraction ([3]; after 0.5 h): 0.010 mg/mL of EYP001
Soluble fraction ([3]; after 1 h): 0.006 mg/mL of EYP001
solubility compared to EYP001 free acid, Piperazine, Morpholine, Imidazole, Benethamine, Zinc and Cyclohexylamine salts ([4]; 37° C.): higher solubility
Soluble fraction ([4]; 37° C., after 24 h): 0.31 mg/mL of EYP001
pH ([4]; pH given with the soluble fraction, after 24 h): 6.6
solubility compared to EYP001 free acid and EYP001 Potassium salt ([5]; 37° C.): higher solubility
Soluble fraction ([5]; after 0.5 h): 0.44 mg/mL of EYP001
Soluble fraction ([5]; after 1 h): 0.46 mg/mL of EYP001
pH ([5]; after 0.5 h): (pH = 5.0)
pH ([5]; after 1 h): (pH = 5.0)
Mean AUC0-24 ([6]; male rats, aqueous formulation): 42500 ng·h/mL
Mean Cmax ([6]; male rats, aqueous formulation): 7870 ng/mL
% increase/EYP001 (AUC0-24) [6, 10]: +47%
% increase/EYP001 (Cmax) [6, 10]: +41%
exposure and C max compared to EYP001 free acid ([6]; rat): superiority
Mean AUC0-24 ([7]; male rats, aqueous formulation): 7311 ng·h/mL
Mean Cmax ([7]; male rats, aqueous formulation): 2947 ng/mL
% increase/EYP001 (AUC0-24) [7, 10]: +84%
% increase/EYP001 (Cmax) [7, 10]: +118%
exposure and C max compared to EYP001 free acid ([7]; rat): superiority
variability of the C max (CV %) compared to EYP001 free acid ([7]; rat): strongly reduced
variability of the exposure (CV %) compared to EYP001 free acid ([7]; rat): strongly reduced
